“And” between values parts separate entries of the source, which are not always exact repeats. Equal entries are not always repeated.
Experiments:
CREB phosphorylation = type: cell-based, mouse
APP/PS1 mice [1] = assay: Electrophysiological analysis (BST, LTP) of slices from mice previously treated i.p.; type: in vivo, mouse
Method: To add depth to the analysis of the functional changes that underlie the striking effects of sildenafil on APP/PS1 mice behavioral performance, synaptic function in hippocampi from the same mice was examined. […] The drug was administered either acutely or for 1 course of 3 week treatment. […] This dose yields concentrations of 2.5 μM cGMP in the hippocampus^[…]. […] Radial-arm water-maze (RAWM) was performed for 3 weeks. Then, the animals were sacrificed for electrophysiological recordings. To decide the time of administration of sildenafil in the acute experiments, a series of studies was performed in which the inhibitor was injected i.p. at 5 min before the electric shock or at 5 min before the first acquisition trial with the radial arm water maze. […] Thus, all the behavioral experiments on the acute effects of sildenafil reported in the result section were performed with injection after the training. Animals were sacrificed by cervical dislocation followed by decapitation. Hippocampi were quickly removed. Transverse hippocampal slices (400 μm) were cut and recorded according to standard procedures^[…]. For example, following cutting hippocampal slices were transferred to a recording chamber where they were maintained at 29° C. and perfused with artificial cerebrospinal fluid (ACSF) continuously bubbled with 95% O2 and 5% CO2. […] CA1 fEPSPs were recorded by placing both the stimulating and the recording electrodes in CA1 stratum radiatum. BST was assayed either by plotting the peak amplitude of the fiber volley against the slope of the fEPSP, or by plotting the stimulus voltages against slopes of fEPSP. For LTP experiments, a 15 min baseline was recorded every min at an intensity that evokes a response 35% of the maximum evoked response. […] Responses were recorded for 2 hrs after tetanization and measured as field-excitatory-post-synaptic potential (fEPSP) slope expressed as percentage of baseline. The results were expressed as mean±Standard Error Mean (SEM).

[2] = tested on: isolated rabbit corpus cavernosum; conditions: read-out: EC50, relaxant effect; cited from earlier work
[3] = tested on: human Aβ40 and Aβ42 levels; assay: Determination of Aβ levels (ELISA of cerebral cortex)
[4] = rodents; cited from earlier work
APP/PS1 mice [5] = assay: Morris water maze and probe trial (reference memory); type: in vivo, mouse
Method: To investigate sildenafil effect on long-term memory, reference memory was tested with a Morris water maze task that is known to require hippocampal function^A20 and is impaired after 6 months of age in the APP/PS1 mice^A12. Vehicle-treated transgenic mice needed more time to find the hidden platform after six sessions compared to WT littermates (FIG. 3C). […] This task is performed after the sixth hidden-platform session. The platform is removed from the water and the animals are allowed to search for 60 seconds. A mouse, knowing that the platform was in a certain position, will trawl repeatedly over that position looking for it. […] The amount of time spent in each quadrant of the maze can be used to evaluate the spatial bias of an animal's search pattern. Vehicle-treated WT mice spent more time in the target quadrant (TQ), where the platform had been located during training than in other quadrants, than in the adjacent quadrant to the right (AR), in the adjacent quadrant to the left (AL), or in the opposite quadrant (OQ) (FIG. 3D). Also, sildenafil improved the performance of the APP/PS1 mice which searched more in the quadrant where the platform had been located during training than in other quadrants (FIG. 3D). […] Sildenafil-treated WT mice remembered where the platform was the previous days and spent about the same time as vehicle-treated WT littermates. […] Behavioral Studies-Reference Memory: The task studied with the Morris water maze has been previously described^12. Briefly, mice were trained in 2 daily sessions (4 hours apart), each consisting of 3 trials (1 minute each), for 3 days. Time required to reach the hidden platform was recorded. To test the retention of the spatial memory, 4 probe trials were performed after the training with the platform […]. The maze was divided into 4 quadrants. The percent of time spent in the quadrant that previously contained the platform was recorded and analyzed with a video tracking system ([…] Image).

[6] = 3 mg/kg, treated at 3 months, tested at 6-8 months
[7] = 6-8 month-old APP/PS1, 3 mg/Kg i.p. for 3 weeks at 3 months of age
[8] = 6-8 month-old WT, 3 mg/Kg i.p. for 3 weeks at 3 months of age
[9] = treated at 3 months, tested at 6-8 months, APP/PS1
[10] = 3-month-old APP/PS1, daily injections for 3 weeks
[11] = APP/PS1 at 7-10 months, injections for 3 weeks at 3 months
[12] = APP/PS1, 3 mg/Kg i.p. for 3 weeks at 3 months
[13] = APP/PS1 previously treated with sildenafil
[14] = WT previously treated with sildenafil
[15] = WT, 3 mg/Kg i.p. for 3 weeks at 3 months
[16] = treated at 3 months, tested at 6-8 months

CCCc1nn(C)c2c(=O)[nH]c(-c3cc(S(=O)(=O)N4CCN(C)CC4)ccc3OCC)nc12 [sildenafil, 5-[2-ethoxy-5-(4-methyl-1-piperazinylsulphonyl)phenyl]-1-methyl-3-n-propyl-1,6-dihydro-7H-pyrazolo[4,3-d]pyrimidin-7-one]
phospho-CREB immunofluorescence after tetanus, % of control (CREB phosphorylation): 162.58±17.09% and 163.54±13.52% and 163.6±15.14% and 151.73±12.24% | minimum time needed for a positive effect on BST (APP/PS1 mice [1]; [6]): 2 weeks | minimum time needed for a positive effect on LTP (APP/PS1 mice [1]; [6]): 2 weeks | BST, fEPSP slope (APP/PS1 mice [1]; [7]): 1.03±0.12 V/sec. | BST, fEPSP slope as % of vehicle-treated APP/PS1 mice (APP/PS1 mice [1]; [7]): ~160% | LTP as % of sildenafil-treated WT mice (APP/PS1 mice [1]; [7]): ~100% | LTP, % of baseline at 120 min (APP/PS1 mice [1]; [7]): 233.81±30.47% | BST, fEPSP slope (APP/PS1 mice [1]; [8]): 1.01±0.12 V/sec. | BST, slope of input-output curve as % of vehicle-treated WT mice (APP/PS1 mice [1]; [8]): ~94% | LTP as % of vehicle-treated mice (APP/PS1 mice [1]; [8]): ~112% | LTP, % of baseline (APP/PS1 mice [1]; [8]): 234.67±17.19% | minimum concentration needed to improve BST (APP/PS1 mice [1]; [9]): 3 mg/kg | minimum concentration needed to improve LTP (APP/PS1 mice [1]; [9]): 3 mg/kg | EC50 [2]: 8.7 nM | minimum time needed for a positive effect on Aβ40 levels ([3]; 3 mg/kg at 3 months of age, measured at 7-8 months): 3 weeks | minimum time needed for a positive effect on Aβ40 ([3]; 3 mg/kg, measured immediately after treatment): 2 weeks | minimum effective dose that decreases Aβ40 and Aβ42 levels ([3]; 3-month-old APP/PS1): 3 mg/kg | Aβ40 as % of vehicle-treated APP/PS1 mice [3, 10]: ~64% | Aβ40 level [3, 10]: 1.71±0.22 ng/mg cortex | Aβ42 as % of vehicle-treated APP/PS1 mice [3, 10]: ~80% | Aβ42 level [3, 10]: 3.56±0.23 ng/mg cortex | effect on Aβ levels in words ([3]; APP/PS1, 1.5 mg/kg for 3 weeks): did not decrease Aβ levels | Aβ40 as % of vehicle-treated APP/PS1 mice [3, 11]: ~65% | Aβ40 level [3, 11]: 49.59±7.93 ng/mg cortex | Aβ42 as % of vehicle-treated APP/PS1 mice [3, 11]: ~73% | Aβ42 level [3, 11]: 32.55±3.27 ng/mg cortex | minimum effective dose that decreases Aβ40 and Aβ42 levels ([3]; treated at 3 months, measured at 7-10 months): 3 mg/kg | in vivo half-life [4]: 24 min | minimum time needed to improve performance with the MWM (APP/PS1 mice [5]; 3 mg/kg): 2 weeks | minimum time needed to improve performance with the probe trial (APP/PS1 mice [5]; 3 mg/kg): 2 weeks | Morris water maze, time to find the hidden platform after six sessions (APP/PS1 mice [5]; [12]): 32.92 ± 3.50 s | time to platform as % of vehicle-treated WT mice (APP/PS1 mice [5]; [12]): ~114% | probe test, % of time spent in target quadrant (TQ) (APP/PS1 mice [5]; [13]): 32.25±0.58% | time in TQ as % of vehicle-treated WT littermates (APP/PS1 mice [5]; [13]): ~97% | probe test, % of time spent in target quadrant (TQ) (APP/PS1 mice [5]; [14]): 33.35±1.38% | time in TQ as % of vehicle-treated WT littermates (APP/PS1 mice [5]; [14]): ~100% | Morris water maze, time to find the hidden platform (APP/PS1 mice [5]; [15]): 25.64 ± 3.16 s | time to platform as % of vehicle-treated WT mice (APP/PS1 mice [5]; [15]): ~89% | minimum concentration needed to improve performance with the MWM (APP/PS1 mice [5]; [16]): 3 mg/kg | minimum concentration needed to improve performance with the probe trial (APP/PS1 mice [5]; [16]): 3 mg/kg

— patent publication US9974782B2, “Phosphodiesterase inhibitors and uses thereof” (THE TRUSTEES OF COLUMBIA UNIVERSITY IN THE CITY OF NEW YORK, priority 2008, dated 2018)
